One test relates to UWB1.289 cells. The test can be described thus: Cell proliferation inhibitory activity in BRCA1/2-mutant or HRD-positive cells (Cell Titer-Glo). The test is classed as cell-based. As to conditions: read-out: GI50 UWB1.289 BRCA1 mut. In outline:
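GI50 from CellTiter-Glo luminescence after 144 h compound exposure at 37 °C. Cells seeded at 1,000 per well in MEBM/RPMI1640 mix 16–24 h beforehand; […] from 10 µM down to 1.5 nM final (3-fold steps).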

The target in the next test is T1, recombinant USP1 protein (Homo sapiens, UniProt O94782, DEL125-138/DEL229-408/DEL608-737).
T1 sequence (O94782 with tags, fused parts or gaps DEL125-138/DEL229-408/DEL608-737): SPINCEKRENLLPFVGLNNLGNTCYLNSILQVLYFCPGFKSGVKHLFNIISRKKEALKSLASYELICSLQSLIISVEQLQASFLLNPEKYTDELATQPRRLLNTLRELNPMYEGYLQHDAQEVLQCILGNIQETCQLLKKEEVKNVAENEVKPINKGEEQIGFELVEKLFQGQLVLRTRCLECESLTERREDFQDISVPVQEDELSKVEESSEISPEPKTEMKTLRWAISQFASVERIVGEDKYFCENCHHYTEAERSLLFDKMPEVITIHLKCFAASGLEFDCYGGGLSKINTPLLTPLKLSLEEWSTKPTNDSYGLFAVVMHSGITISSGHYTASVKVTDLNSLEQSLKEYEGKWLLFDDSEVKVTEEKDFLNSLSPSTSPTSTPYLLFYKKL
The test can be described thus: Binding affinity to recombinant USP1 protein by differential scanning fluorimetry. As to conditions: read-out: ΔTm (°C). In outline:
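Thermal shift readout: ΔTm is the compound-well melting temperature less the DMSO-well value, measured by real-time PCR. Compounds tested at 100 µM final against 0.03 mg/mL truncated USP1 (Δ1-66, Δ125-138, Δ229-408, Δ608-737) in pH 8.0 Tris buffer containing 150 mM NaCl, 2% glycerol, 1 mM DTT.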

Where [1] appears, read: UWB1289, UWB1.289 cells, 144 hours after compound treatment, Cell Titer-Glo, 1.5 nM to 10 µM.
The mark [2] stands for this setting: compound 100 µM, 0.03 mg/mL USP1 (Δ1-66, Δ125-138, Δ229-408, Δ608-737), Tm with compound minus Tm with DMSO.

As usually defined, the GI50 is the concentration giving 50% growth inhibition. The term ΔTm denotes the change in melting temperature against a reference sample.

Structures are written as SMILES. Where two headings read alike, the source gives them in different places. Where only a bound is given, the exact number is not on record here.

Consider `COc1ncnc(C2CC2)c1-c1ncc2cc(C(=O)N[C@H]3C[C@H]3F)n(Cc3ccc(-c4nc(C(F)(F)F)cn4C(C)C)cc3)c2n1` [Example 129, 2-(4-cyclopropyl-6-methoxypyrimidin-5-yl)-N-((1S,2R)-2-fluorocyclopropyl)-7-(4-(1-isopropyl-4-(trifluoromethyl)-1H-imidazol-2-yl)benzyl)-7H-pyrrolo[2,3-d]pyrimidine-6-carboxamide], for which the GI50 in the test on UWB1.289 cells (setting [1]) is < 100 nM. On recombinant USP1 protein (setting [2]), the ΔTm at 100 µM is > 5 °C.
On the same counts, the results for `CNC(=O)c1cc2cnc(-c3c(OC4CC4)ncnc3C3CC3)nc2n1Cc1ccc(-c2nc(C(F)(F)F)cn2C(C)C)cc1` [Example 130, 2-(4-cyclopropoxy-6-cyclopropylpyrimidin-5-yl)-7-(4-(1-isopropyl-4-(trifluoromethyl)-1H-imidazol-2-yl)benzyl)-N-methyl-7H-pyrrolo[2,3-d]pyrimidine-6-carboxamide] are < 100 nM and > 5 °C.
The like results for `COc1ncnc(C2CC2)c1-c1ncc2cc(C(=O)N[C@H]3C[C@@H](OC)C3)n(Cc3ccc(-c4nc(C(F)(F)F)cn4C(C)C)cc3)c2n1` [Example 131, 2-(4-cyclopropyl-6-methoxypyrimidin-5-yl)-7-(4-(1-isopropyl-4-(trifluoromethyl)-1H-imidazol-2-yl)benzyl)-N-((1s,3s)-3-methoxycyclobutyl)-7H-pyrrolo[2,3-d]pyrimidine-6-carboxamide] were, in that order, < 100 nM and > 5 °C.
On the same counts, the results for `CCC1(NC(=O)c2cc3cnc(-c4c(OC)ncnc4C4CC4)nc3n2Cc2ccc(-c3nc(C(F)(F)F)cn3C(C)C)cc2)COC1` [Example 132, 2-(4-cyclopropyl-6-methoxypyrimidin-5-yl)-N-(3-ethyloxetan-3-yl)-7-(4-(1-isopropyl-4-(trifluoromethyl)-1H-imidazol-2-yl)benzyl)-7H-pyrrolo[2,3-d]pyrimidine-6-carboxamide] are < 100 nM and > 5 °C.
With `COc1ncnc(C2CC2)c1-c1ncc2cc(C(=O)NC3CCN(CC4(F)CC4)CC3)n(Cc3ccc(-c4nc(C(F)(F)F)cn4C(C)C)cc3)c2n1` [Example 133, 2-(4-cyclopropyl-6-methoxypyrimidin-5-yl)-N-(1-((1-fluorocyclopropyl)methyl)piperidin-4-yl)-7-(4-(1-isopropyl-4-(trifluoromethyl)-1H-imidazol-2-yl)benzyl)-7H-pyrrolo[2,3-d]pyrimidine-6-carboxamide], the GI50 in the test on UWB1.289 cells (setting [1]) was < 100 nM. In addition, the thermal shift (ΔTm) at 100 µM on recombinant USP1 protein (setting [2]) is > 5 °C.
On the same counts, the results for `CNC(=O)c1cc2cnc(-c3cccnc3C(C)C)nc2n1Cc1ccc(-c2nc(C(F)(F)F)cn2C(C)C)cc1` [Example 134, 7-(4-(1-isopropyl-4-(trifluoromethyl)-1H-imidazol-2-yl)benzyl)-2-(2-isopropylpyridin-3-yl)-N-methyl-7H-pyrrolo[2,3-d]pyrimidine-6-carboxamide] are < 100 nM and > 5 °C.
Take `COc1ncnc(C2CC2)c1-c1ncc2cc(C(=O)NC[C@H](C)OC)n(Cc3ccc(-c4nc(C(F)(F)F)cn4C(C)C)cc3)c2n1` [Example 135, (S)-2-(4-cyclopropyl-6-methoxypyrimidin-5-yl)-7-(4-(1-isopropyl-4-(trifluoromethyl)-1H-imidazol-2-yl)benzyl)-N-(2-methoxypropyl) -7H-pyrrolo[2,3-d]pyrimidine-6-carboxamide]: the GI50 in the test with UWB1.289 cells (setting [1]) is < 100 nM. The ΔTm at 100 µM at recombinant USP1 protein (setting [2]) was > 5 °C.
For `COc1ncnc(C2CC2)c1-c1ncc2cc(C(=O)NC3CCN(C(C)C)CC3)n(Cc3ccc(-c4nc(C(F)(F)F)cn4C(C)C)cc3)c2n1` [Example 137, 2-(4-cyclopropyl-6-methoxypyrimidin-5-yl)-7-(4-(1-isopropyl-4-(trifluoromethyl)-1H-imidazol-2-yl)benzyl)-N-(1-isopropylpiperidin-4-yl)-7H-pyrrolo[2,3-d]pyrimidine-6-carboxamide], the GI50 in the test with UWB1.289 cells (setting [1]) is < 100 nM. In addition, at recombinant USP1 protein (setting [2]), the shift in melting temperature (ΔTm) at 100 µM was > 5 °C.
On the same counts, the results for `COc1ncnc(C2CC2)c1-c1ncc2cc(C(=O)NC3(CO)COC3)n(Cc3ccc(-c4nc(C(F)(F)F)cn4C(C)C)cc3)c2n1` [Example 138, 2-(4-cyclopropyl-6-methoxypyrimidin-5-yl)-N-(3-(hydroxymethyl)oxetan-3-yl)-7-(4-(1-isopropyl-4-(trifluoromethyl)-1H-imidazol-2-yl)benzyl)-7H-pyrrolo[2,3-d]pyrimidine-6-carboxamide] are < 100 nM and > 5 °C.
For `COc1ncnc(C2CC2)c1-c1ncc2cc(C(=O)N(C)CC3COC3)n(Cc3ccc(-c4nc(C(F)(F)F)cn4C(C)C)cc3)c2n1` [Example 139, 2-(4-cyclopropyl-6-methoxypyrimidin-5-yl)-7-(4-(1-isopropyl-4-(trifluoromethyl)-1H-imidazol-2-yl)benzyl)-N-methyl-N-(oxetan-3-ylmethyl)-7H-pyrrolo[2,3-d]pyrimidine-6-carboxamide], the GI50 in the test on UWB1.289 cells (UWB1289, 144 h) is < 100 nM. The thermal shift (ΔTm) at 100 µM on recombinant USP1 protein is > 5 °C.
For the compound `COc1ncnc(C2CC2)c1-c1ncc2cc(C(=O)NCC3(O)COC3)n(Cc3ccc(-c4nc(C(F)(F)F)cn4C(C)C)cc3)c2n1` [Example 140, 2-(4-cyclopropyl-6-methoxypyrimidin-5-yl)-N-((3-hydroxyoxetan-3-yl)methyl)-7-(4-(1-isopropyl-4-(trifluoromethyl)-1H-imidazol-2-yl)benzyl)-7H-pyrrolo[2,3-d]pyrimidine-6-carboxamide], the GI50 in the test with UWB1.289 cells (UWB1289, 144 h) is < 100 nM. In addition, the thermal shift (ΔTm) at 100 µM at recombinant USP1 protein was > 5 °C.
Turning to `COc1ncnc(C2CC2)c1-c1ncc2cc(C(=O)NCC3COC3)n(Cc3ccc(-c4nc(C(F)(F)F)cn4C(C)C)cc3)c2n1` [Example 141, 2-(4-cyclopropyl-6-methoxypyrimidin-5-yl)-7-(4-(1-isopropyl-4-(trifluoromethyl)-1H-imidazol-2-yl)benzyl)-N-(oxetan-3-ylmethyl) -7H-pyrrolo[2,3-d]pyrimidine-6-carboxamide], the GI50 in the test with UWB1.289 cells (setting [1]) is < 100 nM. For the same compound, the ΔTm at 100 µM at recombinant USP1 protein (setting [2]) was > 5 °C.
As for `COc1ncnc(C2CC2)c1-c1ncc2cc(C(=O)NCC3(F)COC3)n(Cc3ccc(-c4nc(C(F)(F)F)cn4C(C)C)cc3)c2n1` [Example 142, 2-(4-cyclopropyl-6-methoxypyrimidin-5-yl)-N-((3-fluorooxetan-3-yl)methyl)-7-(4-(1-isopropyl-4-(trifluoromethyl)-1H-imidazol-2-yl)benzyl)-7H-pyrrolo[2,3-d]pyrimidine-6-carboxamide], the GI50 in the test on UWB1.289 cells (setting [1]) is < 100 nM. The shift in melting temperature (ΔTm) at 100 µM on recombinant USP1 protein (setting [2]) is > 5 °C.
The like results for `CNCCNC(=O)c1cc2cnc(-c3c(OC)ncnc3C3CC3)nc2n1Cc1ccc(-c2nc(C(F)(F)F)cn2C(C)C)cc1` [Example 143, 2-(4-cyclopropyl-6-methoxypyrimidin-5-yl)-7-(4-(1-isopropyl-4-(trifluoromethyl)-1H-imidazol-2-yl)benzyl) -N-(2-(methylamino)ethyl)-7H-pyrrolo[2,3-d]pyrimidine-6-carboxamide] were, in that order, 100 to 500 nM and > 5 °C.
On to `CNC1CN(C(=O)c2cc3cnc(-c4c(OC)ncnc4C4CC4)nc3n2Cc2ccc(-c3nc(C(F)(F)F)cn3C(C)C)cc2)C1` [Example 144, (2-(4-cyclopropyl-6-methoxypyrimid in-5-yl)-7-(4-(1-isopropyl-4-(trifluoromethyl)-1H-imidazol-2-yl)benzyl) -7H-pyrrolo[2,3-d]pyrimidin-6-yl) (3-(methylamino)azetidin-1-yl)methanone], for which the GI50 with UWB1.289 cells (setting [1]) was < 100 nM. The ΔTm at 100 µM on recombinant USP1 protein (setting [2]) was > 5 °C.
As to `CNC(=O)c1cc2cnc(-c3c(OC)ncnc3C3CC3)nc2n1Cc1ccc(-c2nc(C(F)(F)F)cn2C2CC2)cc1` [Example 145, 7-(4-(1-cyclopropyl-4-(trifluoromethyl) -1H-imidazol-2-yl)benzyl)-2-(4-cyclopropyl-6-methoxypyrimidin-5-yl)-N-methyl-7H-pyrrolo[2,3-d]pyrimidine-6-carboxamide], in the test with UWB1.289 cells (setting [1]), the GI50 fell in the range of 100 to 500 nM. In addition, the ΔTm at 100 µM on recombinant USP1 protein (setting [2]) was > 5 °C.
Consider `CNC(=O)c1cc2cnc(-c3c(OC)ncnc3C3CC3)nc2n1Cc1ccc(-c2nc(C(F)(F)F)cn2C(C)C)c(F)c1` [Example 146, 2-(4-cyclopropyl-6-methoxypyrimidin-5-yl)-7-(3-fluoro-4-(1-isopropyl-4-(trifluoromethyl)-1H-imidazol-2-yl)benzyl)-N-methyl-7H-pyrrolo[2,3-d]pyrimidine-6-carboxamide], for which, in the test with UWB1.289 cells (setting [1]), the GI50 is < 100 nM. The ΔTm at 100 µM on recombinant USP1 protein (setting [2]) was > 5 °C.
The like results for `CNC(=O)c1cc2cnc(-c3cccnc3OC)nc2n1Cc1ccc(-c2nc(C(F)(F)F)cn2C(C)C)cc1` [Example 147, 7-(4-(1-isopropyl-4-(trifluoromethyl)-1H-imidazol-2-yl)benzyl)-2-(2-methoxypyridin-3-yl)-N-methyl-7H-pyrrolo[2,3-d]pyrimidine-6-carboxamide] were, in that order, < 100 nM and > 5 °C.

The record behind these values is EP4806898A1, “HETEROARYL DERIVATIVE COMPOUND AND USE THEREOF” (Voronoi Inc., priority 2023, dated 2025).
